Entries after “also recorded” stand apart in the source; their conditions may differ.
How the values were obtained:
ERK1/2 = experiment: EGF-induced ERK1/2 phosphorylation, immunoblotting; type: cell-based, human; settings: U87/EGFR cells; AG1478 1 μM or U0126 20 μM 30 min before EGF 6 h
Procedure: (§1) Immunofluorescence analyses of endogenous PKM2 or transiently expressed FLAG-PKM1 were performed with the indicated antibodies. […] Immunoblotting analyses were performed with the indicated antibodies. Nuclear PCNA was used as controls for immunoblotting analyses. c: An equal volume of cytosolic and nuclear fractions were prepared from U87/EGFR cells treated with or without EGF (100 ng/mL) for 6 h. Ten microliters of protein from cytosolic and nuclear fractions were used for immunoblotting analyses with the indicated antibodies. d: Nuclear fractions were prepared from U251 cells pretreated with LY290042 (30 μM), SU6656 (4 μM), SP600125 (25 μM), and U0126 (20 μM) for 30 min before EGF (100 ng/mL) for 6 h. Immunoblotting analyses were performed with the indicated antibodies. Nuclear PCNA and cytoplasmic tubulin were used as controls. e: U87/EGFR cells were pretreated with LY290042 (30 μM), SU6656 (4 μM), SP600125 (25 μM), and U0126 (20 μM) for 30 min before EGF (100 ng/mL) for 6 h. Immunoblotting analyses were performed with the indicated antibodies.
(§2) Extraction of proteins with a modified buffer from cultured cells was followed by immunoprecipitation and immunoblotting with corresponding antibodies, as described previously (Lu et al., 1998).

PKM2 = experiment: EGF-induced nuclear translocation of PKM2 (cell fractionation, immunoblotting, immunofluorescence); type: cell-based, human; settings: U87/EGFR (and U251) cells; 30 min pretreatment before EGF 100 ng/mL; LY290042 30 μM, SU6656 4 μM, SP600125 25 μM, U0126 20 μM, AG1478 1 μM, cycloheximide 100 μg/mL
Procedure: Immunoblotting analyses (b, b) were performed with the indicated antibodies. Nuclear PCNA and cytoplasmic tubulin were used as controls. a: The indicated cells were immunostained with an anti-PKM2 antibody.
Immunoblotting and immunoprecipitation analyses were performed with the indicated antibodies. a: Nuclear fractions were prepared from U87/EGFR cells pretreated with LY290042 (30 μM), SU6656 (4 μM), SP600125 (25 μM), and U0126 (20 μM) for 30 min before EGF (100 ng/mL) for 6 h. Nuclear PCNA and cytoplasmic tubulin were used as controls. b: U87/EGFR cells were pretreated with or without U0126 (20 μM) for 30 min before EGF (100 ng/mL) for 6 h. Immunofluorescence analyses were performed with the indicated antibodies. Nuclei were stained with Hoechst 33342 (blue). c: U251 cells were stably transfected with a vector with or without expressing FLAG-ERK2 K52R (left panel) or transiently transfected with vectors expressing MEK1 Q56P and indicated FLAG-tagged ERK2 proteins (right panel). The cells were treated with or without EGF (100 ng/mL) for 6 h, and the total cell lysates and nuclear fractions were prepared. d: FLAG-PKM2 or FLAG-PKM1 was immunoprecipitated with an anti-FLAG antibody from U87/EGFR cells treated with or without EGF (100 ng/mL) for 30 min. e: Bacterially-purified GST-ERK2 immobilized on glutathione agarose beads was mixed with or without purified His-PKM2. GST pull-down analyses were performed. Ten percent of total His-PKM2 was used as an input. f: U87/EGFR cells transfected with vectors expressing the indicated FLAG-tagged ERK proteins were treated with or without EGF (100 ng/mL) for 30 min. g: U87/EGFR cells expressing the indicated FLAG-PKM2 proteins were treated with or without EGF (100 ng/mL) for 30 min.
as §1
Cytosolic and nuclear fractions were prepared. Immunoblotting analyses were performed with the indicated antibodies. b: U87/EGFR cells with depleted endogenous PKM2 and reconstituted expression of RNAi-resistant WT rPKM2 or rPKM2 S37A were treated with or without EGF (100 ng/mL) for 6 h. Total cell lysates (left panel) and nuclear fractions (right panel) were prepared.

PKM2 expression = experiment: EGF-induced PKM2 upregulation, immunoblotting; type: cell-based, human; settings: U87/EGFR cells; pretreatment before EGF 100 ng/mL 12 h; AG1478 1 μM, cycloheximide 200 μg/mL, Bis-I 2 μM, Go6976 2 μM, NF-κB activation inhibitor II 7 μM, AKT inhibitor 10 μM, TBB 50 μM, U73122 2 μM
Procedure: FIG. 56: EGFR activation results in upregulation of PKM2 expression. A-D: Immunoblotting analyses were performed with or without the indicated antibodies. A: The indicated cell lines were treated with EGF (100 ng/mL) for 12 h. B: U87 cells were stably transfected with plasmids expressing EGFR or EGFRvIII. […] D: U87/EGFR cells were pretreated with or without cycloheximide (CHX) (200 μg/mL) for 30 min before EGF (100 ng/mL) treatment for 12 h. […] The relative mRNA levels of PKM2 and PKM1 were normalized to the levels of untreated cells and β-actin mRNA. Data represent the mean±SD of three independent experiments.
FIG. 57: EGF increases PKM2 expression in a PKC- and NF-κB-dependent manner. A-D, H: Immunoblotting analyses were performed with the indicated antibodies. […] ChIP assay was performed with an anti-RelA antibody for immunoprecipitation, followed by PCR with PKM promoter-specific primers. F: An oligonucleotide containing the putative WT or mutated NF-κB binding sequence was labeled using [γ-^32P] ATP and T4 polynucleotide kinase. […] Samples were subjected to 5% polyacrylamide gel electrophoresis, and the dried gel was exposed to x-ray film. […] The relative levels of luciferase activity were normalized to the levels of untreated cells and to the levels of luciferase activity of the Renilla control plasmid. Data represent the mean±standard deviation of three independent experiments.
FIG. 58: PKCε downstream from PLCγ1, rather than TAK1, activates IKKβ and subsequently increases PKM2 expression. […] B: U87/EGFR cells were treated with TNFα (10 ng/mL) for the indicated time. C: U87/EGFR cells were treated with or without EGF (100 ng/mL) or TNFα (10 ng/mL) for 4 h. […] HIF1α was immunodepleted from the cell lysates by incubation with an anti-HIF1α antibody, which was followed by a ChIP assay with an anti-FLAG antibody for immunoprecipitation of FLAG-RelA and PCR analysis with PKM promoter-specific primers. […] F: 293T cells were transiently transfected with constitutively active (+) or kinase-dead (−) PKC mutants. […] H, I: 293T cells were transiently transfected with the indicated plasmids.

IKKβ = target: T1, IKKβ (Homo sapiens, UniProt O14920); settings: small molecules IKKβ inhibitors; values from the cited references; read-out: IC50 (half maximal inhibitory concentration); cited from earlier work
T1 sequence (O14920 1-756): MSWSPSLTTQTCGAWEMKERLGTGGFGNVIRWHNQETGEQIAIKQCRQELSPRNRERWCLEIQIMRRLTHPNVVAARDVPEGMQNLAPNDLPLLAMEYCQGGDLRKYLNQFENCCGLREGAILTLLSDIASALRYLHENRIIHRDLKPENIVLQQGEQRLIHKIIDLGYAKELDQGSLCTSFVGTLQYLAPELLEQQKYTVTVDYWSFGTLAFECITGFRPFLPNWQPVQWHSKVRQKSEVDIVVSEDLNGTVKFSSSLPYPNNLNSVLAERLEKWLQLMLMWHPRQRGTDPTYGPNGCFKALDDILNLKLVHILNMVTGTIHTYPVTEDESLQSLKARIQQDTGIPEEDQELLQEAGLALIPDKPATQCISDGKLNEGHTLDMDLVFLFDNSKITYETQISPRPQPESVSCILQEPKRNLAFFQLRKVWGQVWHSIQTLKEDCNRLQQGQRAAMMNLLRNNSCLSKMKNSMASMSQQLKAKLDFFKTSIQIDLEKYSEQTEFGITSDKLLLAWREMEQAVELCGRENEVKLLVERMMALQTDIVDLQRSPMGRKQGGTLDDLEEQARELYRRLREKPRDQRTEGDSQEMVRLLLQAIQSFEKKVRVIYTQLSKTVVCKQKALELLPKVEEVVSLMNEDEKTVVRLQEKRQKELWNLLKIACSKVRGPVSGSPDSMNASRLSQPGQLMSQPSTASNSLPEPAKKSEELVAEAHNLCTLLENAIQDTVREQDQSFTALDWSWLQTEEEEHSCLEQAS

[1] = system: PKM2-β-catenin interaction; experiment: EGF-induced association of β-catenin with PKM2 in primary GBM cells (co-IP); type: cell-based; settings: GSC11 and GSC23 human primary GBM cells; SU6656 4 μM 30 min before EGF 100 ng/mL 6 h
Text: (§3) FIG. 16: EGF induces the nuclear translocation of PKM2, c-Src-dependent […] Y333 phosphorylation, and a c-Src-dependent interaction between PKM2 and β-catenin in primary GBM cells. […] Nuclear PCNA and cytoplasmic tubulin were used as controls.

β-catenin = experiment: EGF-induced β-catenin Tyr/Y333 phosphorylation, immunoprecipitation and immunoblotting; type: cell-based, human
Procedure: FIG. 2: c-Src phosphorylates β-catenin at Y333 upon EGFR activation. a: U87/EGFR cells were treated with SU6656 (4 μM) or an Abl inhibitor (0.2 μM) for 30 min before EGF treatment for 6 h. b: The indicated cells were treated with or without EGF for 6 h. c: β-catenin was immunoprecipitated from the nuclear fractions of U87/EGFR cells treated with or without EGF for 6 h. d, g: U87/EGFR cells transiently expressing the indicated FLAG-tagged β-catenin proteins were treated with or without EGF for 6 h. e: In vitro kinase assays were performed with purified active c-Src and purified β-catenin proteins. f: Immobilized GST-β-catenin proteins were mixed with purified His-PKM2 proteins in the presence or absence of active c-Src.
as §3

c-Src = c-Src (Homo sapiens, UniProt P12931); experiment: EGF-induced c-Src activation (Y418 phosphorylation), immunoblotting; type: cell-based; settings: U87/EGFR cells; SU6656 4 μM 30 min before EGF 100 ng/mL 6 h
Sequence of c-Src (P12931 whole entry): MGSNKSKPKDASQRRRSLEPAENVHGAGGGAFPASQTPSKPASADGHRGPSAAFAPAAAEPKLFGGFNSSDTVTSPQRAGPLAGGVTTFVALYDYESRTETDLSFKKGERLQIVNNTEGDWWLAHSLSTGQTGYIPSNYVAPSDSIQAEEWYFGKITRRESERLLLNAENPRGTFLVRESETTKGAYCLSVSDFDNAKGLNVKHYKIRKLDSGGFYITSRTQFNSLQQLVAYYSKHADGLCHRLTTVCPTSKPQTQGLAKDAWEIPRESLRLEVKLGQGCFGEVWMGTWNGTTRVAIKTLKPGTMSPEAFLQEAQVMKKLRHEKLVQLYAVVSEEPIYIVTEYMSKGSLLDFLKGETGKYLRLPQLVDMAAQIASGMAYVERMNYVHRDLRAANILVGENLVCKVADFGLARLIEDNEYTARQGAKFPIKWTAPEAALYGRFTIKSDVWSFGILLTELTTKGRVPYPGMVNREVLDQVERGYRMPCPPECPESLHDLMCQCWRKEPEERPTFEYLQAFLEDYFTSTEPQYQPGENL
Procedure: as §1, §2

U87/EGFRvIII cells = experiment: Intracranial U87/EGFRvIII xenograft, intratumoral SU6656; type: in vivo, athymic nude mice
Procedure: FIG. 19: c-Src inhibition suppresses tumorigenesis and reduces β-catenin Y333 phosphorylation and cyclin D1 expression in tumor tissues. a: U87/EGFRvIII (5×10^5) cells were intracranially injected into athymic nude mice. After 5 d, seven mice were sacrificed to examine tumor growth; the remaining mice, whose tumors were intracranially injected with SU6656 (0.015 mg/kg in 5 μL of DMSO) or DMSO every three days, were sacrificed at day 15. […] C: Immunoblotting analyses of the indicated tumor tissues were performed with the indicated antibodies.
GBM cells (5×10^5) were intracranially injected (in 5 μL of DMEM per mouse), with or without regulation of β-catenin or PKM2 expression, into 4-week-old female athymic nude mice. The intracranial injections were performed, as described in a previous publication (Gomez-Manzano et al., 2006). Seven mice per group in each experiment were included. Animals injected with U87/EGFRvIII or GSC 11 cells were sacrificed 2 weeks or 30 days after glioma cell injection, respectively. The brain of each mouse was harvested, fixed in 4% formaldehyde, and embedded in paraffin. Tumor formation and phenotype were determined by histologic analysis of H & E-stained sections.
For doxycycline induction studies, seven mice were sacrificed 14 days after GBM cell injection to examine tumor growth, whereas the remaining 14 mice in two groups were fed with or without water containing 800 μg/mL doxycycline. The water containing doxycycline was changed every three days. The mice in these two groups were sacrificed at day 30. For the SU6656 treatment studies, seven mice were sacrificed five days after U87/EGFRvIII cell injection to examine tumor growth, whereas the remaining 14 mice in two groups were treated with either DMSO or SU6656. SU6656 (0.015 mg/kg in 5 μL of DMSO) was intracranially injected into the tumor every three days, and the mice in both groups were sacrificed at day 14 after GBM cell injection.

[2] = SU6656 0.015 mg/kg intratumoral every three days

SMILES: COc1cc2ncnc(Nc3cccc(Cl)c3)c2cc1OC [AG1478]
- EGF-induced phosphorylation of ERK1/2 (ERK1/2): blocked
- EGF-induced nuclear accumulation/translocation of PKM2 (PKM2): abrogated
- EGF-induced PKM2 upregulation/expression (PKM2 expression): blocked; also recorded: abrogated

SMILES: O=C(Nc1cc(C(F)(F)F)cc(C(F)(F)F)c1)c1cc(Cl)ccc1O [IMD-0354]
- IC50 (IKKβ): 280 to 3000 nM

SMILES: O=C(N/N=C/c1ccc([N+](=O)[O-])cc1)c1ccc2ccccc2c1 [LASSBio-1524]
- IC50 (IKKβ): 20000 nM

SMILES: Cc1cc(N)ccc1N=Nc1ccc(S(=O)(=O)CCOS(=O)(=O)O)cc1 [NSC 676914]
- IC50 (IKKβ): 17000 nM

SMILES: C[C@]1(CO)CN(c2cc(C(=O)Nc3ccc4c(c3)-c3c(c(C(N)=O)nn3-c3ccc(F)cc3)CC4)c(Cl)cn2)C[C@@]1(C)CO [PF-184]
- IC50 (IKKβ): 37 nM

SMILES: O=C(Nc1cc(Cl)cc2c1[nH]c1cnccc12)c1cccnc1 [PS1145]
- IC50 (IKKβ): 88 nM

SMILES: CN(C)S(=O)(=O)c1ccc2c(c1)/C(=C/c1cc3c([nH]1)CCCC3)C(=O)N2 [SU6656]
- EGF-induced association of β-catenin with PKM2 [1]: blocked
- EGF-induced phosphorylation of β-catenin Y333 (β-catenin; GSC11 and GSC23 human primary GBM cells, SU6656 4 μM 30 min before EGF 100 ng/mL 6 h): blocked
- EGF-induced Tyr phosphorylation of β-catenin (β-catenin; U87/EGFR cells, SU6656 4 μM or Abl inhibitor 0.2 μM 30 min before EGF 6 h): blocked
- EGF-induced activation/phosphorylation of c-Src (Y418) (c-Src): completely abrogated; also recorded: blocked
- EGF-induced nuclear accumulation/translocation of PKM2 (PKM2): only inhibition of MEK/ERK abrogated
- tumor growth (U87/EGFRvIII cells; SU6656 0.015 mg/kg in 5 μL DMSO intratumoral every three days vs DMSO): significantly blocked tumor growth
- cyclin D1 expression in tumor tissue (U87/EGFRvIII cells; [2]): inhibited
- phosphorylation level of c-Src Y418 in tumor tissue (U87/EGFRvIII cells; [2]): reduced
- phosphorylation level of β-catenin Y333 in tumor tissue (U87/EGFRvIII cells; [2]): reduced

SMILES: C[C@@H]1C[C@@H]([C@H](O)CC2CC(=O)NC(=O)C2)C(=O)[C@@H](C)C1 [cycloheximide]
- EGF-induced nuclear accumulation/translocation of PKM2 (PKM2): did not inhibit
- EGF-induced PKM2 upregulation/expression (PKM2 expression): inhibited

From patent US20150073033A1, “BIOMARKERS FOR CANCER CHARACTERIZATION AND TREATMENT” (Board of Regents, The University of Texas System, priority 2011, published 2015)
